Results: PMC8658016, “Identification of New Compounds with Anticonvulsant and Antinociceptive Properties in a Group of 3-substituted (2,5-dioxo-pyrrolidin-1-yl)(phenyl)-Acetamides” (International Journal of Molecular Sciences, 2021)
Where two headings read alike, the source gives them in different places.

Key:
mice [1] = experiment: Subcutaneous pentylenetetrazole (scPTZ) seizure test; format: in vivo, mouse; conditions: mice i.p.
mice [2] = experiment: 6 Hz (44 mA) seizure test, model of drug-resistant epilepsy; format: in vivo; conditions: Mus musculus, ip; mice i.p.; 95% confidence interval in parentheses
[3] = Rectal temperature measurement; format: in vivo, mouse; conditions: 30 and 60 mg/kg i.p., 30 min
Protocol: Figure 4 Acute effect of compound 14 on rectal temperature in mice. Compound 14 was administered i.p. 30 min before the seizure test. Control animals received vehicle only. Each experimental group consisted of 10 animals. Each bar represents the mean difference between the pre-injection and post-injection values of rectal temperature in mice (ΔT) + S.E.M. Data were analyzed with one-way ANOVA test (GraphPad Prism 8.0.1).
In this study, we used adult male Swiss albino mice (Kołacz, Laboratory Animals Breeding, Warszawa, Poland) license no. 106/2019 (Local Ethical Committee in Lublin). […]
The timed ivPTZ test was employed to evaluate the acute effect of compound 14 on the seizure thresholds for (1) the first myoclonic twitch, (2) generalized clonic seizure with loss of righting reflex, and (3) forelimb tonus. […] The changes in temperature were recorded using an electronic thermometer (ThermoWorks, Alpine, UT, USA). […]
The probe remained in the rectum for several second, allowing for temperature stabilization. The temperature was recorded just before injection of compound 14 or vehicle and 30 min later. The difference between the pre- and post-injection temperature value was then calculated (Δ °C).

[4] = system: TTX-sensitive Na+ channel; experiment: Radioligand binding, TTX-sensitive Na+ channel; conditions: rat cerebral cortex
[5] = Pharmacokinetic study in mice, serum and brain (LC-MS/MS); format: in vivo, mouse; conditions: for k el: non-compartmental analysis, read-out: λz (converted)
Protocol: The amount of the target compound in the serum and brain was determined by an LC-MS/MS system. […] The compound also very quickly penetrated to the murine brain and reached the maximum concentration in this organ at 15 min. However, the brain concentrations were lower than those in the serum. The compound was slowly eliminated from the body as its concentrations were still measurable up to 8 h. The terminal slope reflecting the elimination rate from the brain was similar to that observed in the serum. Male CD-1 mice weighting 28–33 g housed in conditions of the constant temperature with a 12:12 h light–dark cycle with free access to food and water were used in this study. The investigated compound was dissolved in sterile water for injection (Polpharma, Poland) and administered i.p. at a dose of 40 mg/kg. The mice were sacrificed by decapitation under isoflurane anesthesia. Blood samples were collected at 5, 15, 30, 60, 120, 240, and 480 min after dosing and brains were harvested at the same time points. Blood was allowed to clot at room temperature for 20 min and serum was separated by centrifugation at 3000 rpm for 10 min (Eppendorf MiniSpin centrifuge, Germany). The samples were stored at −80 °C until analysis. All animal procedures were approved by the First Ethical Committee on Animal Experimentation in Krakow, Poland (no. 270/2019). Concentrations of compound 14 in mouse brains and serum were measured by liquid chromatography tandem mass spectrometry (LC-MS/MS) method using SCIEX QTRAP 4500 triple quadrupole mass spectrometer coupled to Excion LC AC HPLC system (both from Danaher Corporation, Washington, DC, USA). Chromatographic separation was carried out on the Hypersil GoldTM C18 analytical column (2.1 × 50 mm, 3 µm, Thermo Scientific, USA) with the oven temperature set at 40 °C. […] The remaining time of elution was set at 95% B. The whole HPLC operation lasted 10 min. Electrospray ionization (ESI) in the positive ion mode was used for ion production. The tandem mass spectrometer was operated at unit resolution in the selected reaction monitoring mode (SRM), monitoring the transition of the protonated molecular ions m/z 489 to 132 (CE = 65 eV) and m/z 489 to 231 (CE = 29 eV) for compound 14 (first pair was used as a quantifier and the second for the identity verification qualifier) and m/z 436 to 235 (CE = 42 eV) for an internal standard (valsartan). The mass spectrometric conditions were optimized by continuous infusion of the standard solution at the rate of 7 μL/min using a Harvard infusion pump. The ion source temperature was maintained at 450 °C and the ion spray voltage was set at 5500 V. The curtain gas (CUR) was set at 40 psi and the collision gas (CAD) at medium. Data acquisition and processing were accomplished using the Analyst version 1.7 software. The calibration curves were constructed by plotting the ratio of the peak area of the studied compound to internal standard (IS) versus drug concentration and generated by weighted (1/x·x) linear regression analysis. The validated quantitation ranges for this method were within the expected concentration ranges, namely, from 0.1 to 20 µg/mL of serum and from 0.05 to 10 µg/g of brain tissue with accuracy from 93.73 to 104.29% and from 88.33 to 107% for serum and brain, respectively. No significant matrix effect was observed and there were no stability-related problems during the routine analysis of the samples. The brains were homogenized in distilled water at the ratio of 1:4 (w/v) with a tissue homogenizer LabGEN 125 (Cole-Parmer, Vernon Hills, IL, USA). […] Serum supernatant was additionally diluted 10 times with the deproteinization solution. Then, brain or serum supernatants were transferred into the autosampler vials. The autosampler temperature was maintained at 15 °C and a sample volume of 2 μL was injected into the LC-MS/MS system.

CYP3A4 = target: T1, CYP3A4 (Homo sapiens, UniProt P08684); experiment: CYP3A4 P450-Glo luminescent assay; format: in vitro ADME
T1 construct: purchased Promega (Madison, WI, USA)
T1 sequence (P08684 whole entry): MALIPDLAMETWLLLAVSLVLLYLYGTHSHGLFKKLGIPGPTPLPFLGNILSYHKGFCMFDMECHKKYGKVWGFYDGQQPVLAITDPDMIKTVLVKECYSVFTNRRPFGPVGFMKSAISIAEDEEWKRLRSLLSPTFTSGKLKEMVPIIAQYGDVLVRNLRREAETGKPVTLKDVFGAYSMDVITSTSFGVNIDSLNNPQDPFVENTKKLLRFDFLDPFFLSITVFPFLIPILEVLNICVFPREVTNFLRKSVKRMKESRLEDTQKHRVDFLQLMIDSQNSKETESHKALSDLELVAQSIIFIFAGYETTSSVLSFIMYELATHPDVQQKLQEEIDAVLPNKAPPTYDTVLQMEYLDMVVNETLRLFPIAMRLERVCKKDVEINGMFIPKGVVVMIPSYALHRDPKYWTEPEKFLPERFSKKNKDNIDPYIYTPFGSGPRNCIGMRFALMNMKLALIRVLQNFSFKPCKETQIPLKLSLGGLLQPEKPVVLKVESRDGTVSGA

[6] = male, CD-1, mouse, ip, brain, mice, 40 mg/kg i.p.
[7] = male, CD-1, mouse, ip, serum, mice, 40 mg/kg i.p.

CN(C)C1CC(=O)N(C(C(=O)N2CCN(c3cccc(C(F)(F)F)c3)CC2)c2ccccc2)C1=O.Cl (centres unmarked) [Compound 14, 3-(Dimethylamino)-1-(2-oxo-1-phenyl-2-(4-(3-(trifluoromethyl)phenyl)-piperazin-1-yl)ethyl)pyrrolidine-2,5-dione hydrochloride]
ED50 (mice [1]; Mus musculus, ip, 95% confidence interval in parentheses): 67.4 mg/kg | scPTZ screening: number of mice protected / number of mice tested (mice [1]; 100 mg/kg, 0.5 h): 2/4 | ED50 (mice [2]): 63.2 mg/kg | effect on body (rectal) temperature [3]: did not produce statistically significant changes | % Inhibition of Control-Specific Binding, TTX-sensitive Na+ channel ([4]; 10 µM): 31.0% | % Inhibition of Control-Specific Binding, TTX-sensitive Na+ channel ([4]; 50 µM): 90.3% | AUC0-∞ ([5]; brain, mice, 40 mg/kg i.p.): 413.17 µg⋅min/mL(g) | Cmax ([5]; brain, mice, 40 mg/kg i.p.): 5.32 µg/mL(g) | t0.5λz ([5]; brain, mice, 40 mg/kg i.p.): 66.14 min | Kp ([5]; male, CD-1, mouse, brain and serum, ip, mice, 40 mg/kg i.p., read-out: brain-to-serum AUC ratio): ≤ 0.3 | concentration at 30 min ([5]; male, CD-1, mouse, brain, ip, 40 mg/kg, mice i.p., calculated for the free base, read-out: C30 min. in the brain): 7.2 µM | Cmax ([5]; male, CD-1, mouse, brain, ip, 40 mg/kg, mice i.p., calculated for the free base, read-out: Cmax in the brain): 10.9 µM | concentration at 30 min ([5]; male, CD-1, mouse, brain, ip, mice, 40 mg/kg i.p., read-out: brain level 30 min post-dose): 3500 ± 990 ng/g | MRT [5, 6]: 89.2 min | Tmax [5, 6]: 15 min | k el [5, 6]: 0.000183 s⁻¹ | CL/F [5, 7]: 27 mL/min/kg | MRT [5, 7]: 93.5 min | Tmax [5, 7]: 5 min | k el [5, 7]: 0.000183 s⁻¹ | concentration at 30 min ([5]; male, CD-1, mouse, serum, ip, 40 mg/kg, mice i.p., calculated for the free base, read-out: C30 min. in serum): 24.3 µM | Cmax ([5]; male, CD-1, mouse, serum, ip, 40 mg/kg, mice i.p., calculated for the free base, read-out: Cmax in serum): 41.1 µM | brain concentration 15 min after administration (highest) ([5]; mice, 40 mg/kg i.p.): 5.32 ± 0.54 µg/g tissue | AUC0-∞ ([5]; serum, mice, 40 mg/kg i.p.): 1451.22 µg⋅min/mL(g) | Cmax ([5]; serum, mice, 40 mg/kg i.p.): 20.06 µg/mL(g) | V/F ([5]; serum, mice, 40 mg/kg i.p.): 2.57 L/kg | t0.5λz ([5]; serum, mice, 40 mg/kg i.p.): 64.65 min | CYP3A4 activity in the presence of the compound (CYP3A4; 10 µM): higher than 50% | CYP3A4 inhibition, classification (CYP3A4; significant inhibition only at 10 µM and 25 µM (p < 0.0001)): moderate inhibitor
